Patent publication US20240383875A1, “Benzimidazole Pyridine Derivatives” (Hoffmann-La Roche Inc., priority 2022, published 2024)

How the values were obtained:
Assay type in all cases: biochemical
SIK3 = SIK3 (Homo sapiens, UniProt Q9Y2K2); assay: Enzymatic activity assay SIK3, RapidFire mass spectrometry (phosphorylation of CHK-peptide); conditions: RapidFire MS, inhibition of SIK3; read-out: SIK3 RF IC50
Outline: (§1)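 Compounds (12-point, 3-fold, generally 30 μM to 170 pM) were pre-incubated 30 min at ambient temperature with SIK1 (5 nM), SIK2 (0.5 nM) or SIK3 (1.5 nM) in HEPES pH 7.0/magnesium acetate buffer. CHK-peptide (10 μM solution) and ATP (100 μM solution) were then added for 45 min before formic acid quench.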

SIK2 = SIK2 (Homo sapiens, UniProt Q9H0K1); assay: Enzymatic activity assay SIK2, RapidFire mass spectrometry (phosphorylation of CHK-peptide); conditions: RapidFire MS, inhibition of SIK2; read-out: SIK2 RF IC50
Outline: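 SIK2 (0.5 nM) in pH 7.0 HEPES buffer with 10 mM Mg acetate phosphorylates CHK-peptide (10 μM solution) with 100 μM ATP solution, 45 min ambient, then formic acid quench.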

SIK1 = SIK1 (Homo sapiens, UniProt P57059); assay: Enzymatic activity assay SIK1, RapidFire mass spectrometry (phosphorylation of CHK-peptide); conditions: RapidFire MS, inhibition of SIK1; read-out: SIK1 RF IC50
Outline: as §1

Sequence of SIK3 (Q9Y2K2 whole entry): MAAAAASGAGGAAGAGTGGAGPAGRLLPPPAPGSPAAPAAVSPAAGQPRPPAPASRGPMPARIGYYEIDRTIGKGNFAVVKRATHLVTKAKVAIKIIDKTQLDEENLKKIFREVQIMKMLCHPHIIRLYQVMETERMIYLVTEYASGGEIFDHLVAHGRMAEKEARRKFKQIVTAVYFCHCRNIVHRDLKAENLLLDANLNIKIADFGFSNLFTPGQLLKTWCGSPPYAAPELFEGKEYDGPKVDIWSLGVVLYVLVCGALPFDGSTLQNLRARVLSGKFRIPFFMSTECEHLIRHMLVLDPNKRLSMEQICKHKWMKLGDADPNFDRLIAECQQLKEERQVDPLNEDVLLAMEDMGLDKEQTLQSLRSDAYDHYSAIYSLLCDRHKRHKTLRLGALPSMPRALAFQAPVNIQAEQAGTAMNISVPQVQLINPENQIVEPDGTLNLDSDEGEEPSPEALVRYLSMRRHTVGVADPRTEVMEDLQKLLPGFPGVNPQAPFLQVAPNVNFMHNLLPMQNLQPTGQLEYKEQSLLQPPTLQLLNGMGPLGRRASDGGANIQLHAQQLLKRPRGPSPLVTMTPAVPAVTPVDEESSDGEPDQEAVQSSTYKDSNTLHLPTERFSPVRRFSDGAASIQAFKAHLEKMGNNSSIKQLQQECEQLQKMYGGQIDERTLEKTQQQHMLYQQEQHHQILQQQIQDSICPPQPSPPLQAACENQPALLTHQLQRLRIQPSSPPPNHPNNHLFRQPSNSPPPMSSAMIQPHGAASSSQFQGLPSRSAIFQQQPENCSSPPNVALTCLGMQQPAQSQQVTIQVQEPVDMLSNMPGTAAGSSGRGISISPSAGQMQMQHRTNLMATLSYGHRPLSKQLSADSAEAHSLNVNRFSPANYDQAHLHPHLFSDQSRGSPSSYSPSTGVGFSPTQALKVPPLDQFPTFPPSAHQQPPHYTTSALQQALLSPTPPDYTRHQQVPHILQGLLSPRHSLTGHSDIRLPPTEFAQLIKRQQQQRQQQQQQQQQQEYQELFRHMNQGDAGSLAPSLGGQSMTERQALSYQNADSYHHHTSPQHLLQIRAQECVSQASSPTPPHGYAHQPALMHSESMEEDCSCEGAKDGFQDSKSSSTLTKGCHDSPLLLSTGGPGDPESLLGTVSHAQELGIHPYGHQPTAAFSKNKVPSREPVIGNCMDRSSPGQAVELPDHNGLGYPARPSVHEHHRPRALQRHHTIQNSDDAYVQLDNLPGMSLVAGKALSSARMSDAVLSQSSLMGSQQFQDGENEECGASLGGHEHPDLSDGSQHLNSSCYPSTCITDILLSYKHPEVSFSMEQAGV
Sequence of SIK2 (Q9H0K1 whole entry): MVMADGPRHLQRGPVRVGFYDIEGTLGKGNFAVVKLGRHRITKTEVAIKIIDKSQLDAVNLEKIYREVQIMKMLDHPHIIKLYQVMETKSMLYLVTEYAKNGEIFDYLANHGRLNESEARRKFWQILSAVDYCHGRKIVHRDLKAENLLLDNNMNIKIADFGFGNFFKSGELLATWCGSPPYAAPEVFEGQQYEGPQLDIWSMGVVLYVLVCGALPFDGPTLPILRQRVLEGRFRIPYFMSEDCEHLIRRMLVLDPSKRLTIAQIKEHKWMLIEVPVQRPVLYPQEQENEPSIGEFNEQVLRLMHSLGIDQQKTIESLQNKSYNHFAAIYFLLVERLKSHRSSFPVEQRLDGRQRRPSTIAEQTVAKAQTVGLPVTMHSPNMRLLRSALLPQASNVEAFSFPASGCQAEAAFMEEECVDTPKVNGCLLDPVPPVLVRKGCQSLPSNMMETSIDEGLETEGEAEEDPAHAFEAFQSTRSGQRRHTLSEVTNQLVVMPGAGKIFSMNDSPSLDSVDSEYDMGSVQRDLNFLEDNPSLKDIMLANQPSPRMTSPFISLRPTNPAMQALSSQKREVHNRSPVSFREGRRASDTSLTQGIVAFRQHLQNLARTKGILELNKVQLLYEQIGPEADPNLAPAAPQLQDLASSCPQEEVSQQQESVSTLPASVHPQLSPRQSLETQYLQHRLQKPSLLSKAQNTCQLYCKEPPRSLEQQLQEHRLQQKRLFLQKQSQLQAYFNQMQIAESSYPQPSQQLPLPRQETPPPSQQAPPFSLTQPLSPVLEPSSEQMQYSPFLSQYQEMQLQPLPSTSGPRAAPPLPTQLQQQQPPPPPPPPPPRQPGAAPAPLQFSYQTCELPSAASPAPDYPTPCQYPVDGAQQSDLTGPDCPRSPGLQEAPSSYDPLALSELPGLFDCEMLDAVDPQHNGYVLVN
Sequence of SIK1 (P57059 whole entry): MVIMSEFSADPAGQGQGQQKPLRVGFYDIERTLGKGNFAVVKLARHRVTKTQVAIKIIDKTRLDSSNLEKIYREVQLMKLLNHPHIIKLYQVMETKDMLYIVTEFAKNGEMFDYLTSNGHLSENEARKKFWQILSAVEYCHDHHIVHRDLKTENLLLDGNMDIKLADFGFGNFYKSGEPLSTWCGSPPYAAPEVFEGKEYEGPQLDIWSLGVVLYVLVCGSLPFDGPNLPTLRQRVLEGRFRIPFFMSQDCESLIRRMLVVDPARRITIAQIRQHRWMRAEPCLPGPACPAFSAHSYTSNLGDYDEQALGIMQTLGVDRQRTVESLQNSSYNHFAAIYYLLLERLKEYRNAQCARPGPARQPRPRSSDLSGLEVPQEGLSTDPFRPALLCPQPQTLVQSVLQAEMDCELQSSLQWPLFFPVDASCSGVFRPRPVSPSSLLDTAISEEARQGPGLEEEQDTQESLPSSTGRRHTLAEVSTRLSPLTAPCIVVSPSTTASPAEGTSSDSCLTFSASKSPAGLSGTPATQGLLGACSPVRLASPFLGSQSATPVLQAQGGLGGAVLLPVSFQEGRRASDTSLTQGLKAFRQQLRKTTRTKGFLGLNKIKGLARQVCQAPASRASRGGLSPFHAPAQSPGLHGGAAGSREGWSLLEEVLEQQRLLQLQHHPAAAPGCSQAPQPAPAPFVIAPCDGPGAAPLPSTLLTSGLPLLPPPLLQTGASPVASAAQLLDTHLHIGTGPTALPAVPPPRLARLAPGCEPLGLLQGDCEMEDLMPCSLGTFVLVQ

Row | SMILES | IC50 (SIK3) | IC50 (SIK2) | IC50 (SIK1)
1 | CNC(=O)c1cc(C)n(-c2nc(-n3cnc4ccc(Nc5ccc(C)nn5)cc43)ccc2C(C)O)n1 (stereo not drawn) [Example 144, 1-[3-(1-Hydroxyethyl)-6-[6-[(6-methylpyridazin-3-yl)amino]benzimidazol-1-yl]-2-pyridyl]-N,5-dimethyl-pyrazole-3-carboxamide] | 9240 nM | 5920 nM | 8400 nM
2 | Cc1ccc(Nc2ccc3c(c2)ncn3-c2nc(-n3nc(C#N)cc3C)c(C(C)O)cc2Cl)nn1 (stereo not drawn) [Example 245, 1-[5-Chloro-3-(1-hydroxyethyl)-6-[5-[(6-methylpyridazin-3-yl)amino]benzimidazol-1-yl]-2-pyridyl]-5-methyl-pyrazole-3-carbonitrile; formic acid] | 67.4 nM | 72.5 nM | 6410 nM

The next molecules have a lower IC50 (SIK3) than those just listed; values first:

Row | IC50 (SIK3) | IC50 (SIK2) | IC50 (SIK1) | SMILES
3 | 1.8 nM | 2 nM | 521 nM | Cc1ccc(Nc2ccc3c(c2)ncn3-c2ccc(C(C)O)c(-c3cn(C4CC4(F)F)nc3C)n2)nn1 (stereo not drawn) [Example 277, 1-[2-[1-(2,2-difluorocyclopropyl)-3-methyl-pyrazol-4-yl]-6-[5-[(6-methylpyridazin-3-yl)amino]benzimidazol-1-yl]-3-pyridyl]ethanol]
4 | 0.8 nM | 2.2 nM | 54 nM | Cc1cc(C#N)nn1-c1nc(-n2cnc3cc(Nc4ccc(C(F)(F)F)nn4)ccc32)ccc1C(C)O (stereo not drawn) [Example 249, 1-[3-(1-Hydroxyethyl)-6-[5-[[6-(trifluoromethyl)pyridazin-3-yl]amino]benzimidazol-1-yl]-2-pyridyl]-5-methyl-pyrazole-3-carbonitrile]
5 | 24.2 nM | 34.2 nM | 617 nM | Cc1cc(S(C)(=O)=O)c(Nc2ccc3c(c2)ncn3-c2ccc(C(C)O)c(-n3nc(C#N)cc3C)n2)nn1 (stereo not drawn) [Example 292, 1-[3-(1-hydroxyethyl)-6-[5-[(6-methyl-4-methylsulfonyl-pyridazin-3-yl)amino]benzimidazol-1-yl]-2-pyridyl]-5-methyl-pyrazole-3-carbonitrile]
